Assay results reported in PubChem BioAssay AID248 (DTP/NCI, 2004).
“And” between values parts separate entries of the source, which are not always exact repeats. Equal entries are not always repeated. Toxic doses and inconclusive results are not listed.

Tested on: L1210 leukemia ip in BDF1 mice, survival T/C
Experiment: NCI In Vivo Anticancer Drug Screen. Data for tumor model L1210 Leukemia (intraperitoneal) in B6D2F1 (BDF1) mice
Details: endpoint: mean survival time, higher = longer survival
In short: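 Ratio derived from survival: compound-dosed mice over vehicle-dosed mice, all bearing a transplantable tumor.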

COC(=O)CNc1cccc([N+](=O)[O-])c1
T/C (dose: 100.0 mg/kg/injection, schedule: Q04DX003 (ip), vehicle: Klucel (hydroxypropylcellulose) (HPC)): 95 % of control | T/C (dose: 200.0 mg/kg/injection, schedule: Q04DX003 (ip), vehicle: Klucel (hydroxypropylcellulose) (HPC)): 102 % of control | T/C (dose: 400.0 mg/kg/injection, schedule: Q04DX003 (ip), vehicle: Klucel (hydroxypropylcellulose) (HPC)): 101 % of control

C=CCN1/C(=C\C=C\c2ccc3cc(C)ccc3[n+]2CC=C)C=Cc2cc(C)ccc21
T/C (dose: 1.17 mg/kg/injection, schedule: Q01DX001 (ip), vehicle: steriod suspending solution): 111 % of control

Cc1cc(C)c(NC(N)=S)cc1C
T/C (dose: 100.0 mg/kg/injection, schedule: Q04DX002 (ip), vehicle: Klucel (hydroxypropylcellulose) (HPC)): 92 % of control | T/C (dose: 200.0 mg/kg/injection, schedule: Q04DX002 (ip), vehicle: Klucel (hydroxypropylcellulose) (HPC)): 94 % of control

COC(=O)C1=C(O)CN(C)C1=O
T/C (dose: 12.5 mg/kg/injection, schedule: Q01DX001 (ip), vehicle: saline): 98 % of control | T/C (dose: 25.0 mg/kg/injection, schedule: Q01DX001 (ip), vehicle: saline): 93 % of control | T/C (dose: 25.0 mg/kg/injection, schedule: Q01DX009 (ip), vehicle: saline): 101 % of control | T/C (dose: 50.0 mg/kg/injection, schedule: Q01DX001 (ip), vehicle: saline): 91 % of control | T/C (dose: 50.0 mg/kg/injection, schedule: Q01DX009 (ip), vehicle: saline): 103 % of control | T/C (dose: 100.0 mg/kg/injection, schedule: Q01DX001 (ip), vehicle: saline): 86 % of control | T/C (dose: 100.0 mg/kg/injection, schedule: Q01DX009 (ip), vehicle: saline): 96 % of control | T/C (dose: 150.0 mg/kg/injection, schedule: Q01DX009 (ip), vehicle: saline): 94 % of control

CC1(C)COC(=S)N1
T/C (dose: 3.13 mg/kg/injection, schedule: Q01DX009 (ip), vehicle: Klucel (hydroxypropylcellulose) (HPC)): 100 % of control | T/C (dose: 5.0 mg/kg/injection, schedule: Q01DX009 (ip), vehicle: saline): 100 % of control | T/C (dose: 5.0 mg/kg/injection, schedule: Q04DX003 (ip), vehicle: saline): 98 % of control | T/C (dose: 6.25 mg/kg/injection, schedule: Q01DX009 (ip), vehicle: Klucel (hydroxypropylcellulose) (HPC)): 103 % of control | T/C (dose: 10.0 mg/kg/injection, schedule: Q01DX009 (ip), vehicle: Klucel (hydroxypropylcellulose) (HPC)): 97 % of control | T/C (dose: 10.0 mg/kg/injection, schedule: Q01DX009 (ip), vehicle: saline): 100 % of control | T/C (dose: 10.0 mg/kg/injection, schedule: Q04DX003 (ip), vehicle: saline): 102 % of control | T/C (dose: 12.5 mg/kg/injection, schedule: Q01DX009 (ip), vehicle: Klucel (hydroxypropylcellulose) (HPC)): 97 % of control and 87 % of control | T/C (dose: 20.0 mg/kg/injection, schedule: Q04DX003 (ip), vehicle: Klucel (hydroxypropylcellulose) (HPC)): 100 % of control | T/C (dose: 20.0 mg/kg/injection, schedule: Q04DX003 (ip), vehicle: saline): 101 % of control

CCCCOc1ccccc1NC(=O)CCl
T/C (dose: 100.0 mg/kg/injection, schedule: Q04DX003 (ip), vehicle: saline): 100 % of control | T/C (dose: 200.0 mg/kg/injection, schedule: Q04DX003 (ip), vehicle: saline): 100 % of control | T/C (dose: 400.0 mg/kg/injection, schedule: Q04DX003 (ip), vehicle: saline): 93 % of control

CN(C)N=Nc1ccccc1C(N)=O
T/C (dose: 20.0 mg/kg/injection, schedule: Q01DX009 (ip), vehicle: Klucel (hydroxypropylcellulose) (HPC)): 110 % of control | T/C (dose: 30.0 mg/kg/injection, schedule: Q01DX009 (ip), vehicle: Klucel (hydroxypropylcellulose) (HPC)): 110 % of control | T/C (dose: 31.25 mg/kg/injection, schedule: Q01DX009 (ip), vehicle: saline with Tween-80): 108 % of control | T/C (dose: 37.25 mg/kg/injection, schedule: Q01DX009 (ip), vehicle: saline with Tween-80): 112 % of control | T/C (dose: 37.5 mg/kg/injection, schedule: Q04DX003 (ip), vehicle: saline with Tween-80): 108 % of control | T/C (dose: 45.0 mg/kg/injection, schedule: Q01DX009 (ip), vehicle: Klucel (hydroxypropylcellulose) (HPC)): 119 % of control | T/C (dose: 55.25 mg/kg/injection, schedule: Q04DX003 (ip), vehicle: saline with Tween-80): 104 % of control | T/C (dose: 62.5 mg/kg/injection, schedule: Q01DX001 (ip), vehicle: saline with Tween-80): 111 % of control | T/C (dose: 67.0 mg/kg/injection, schedule: Q01DX009 (ip), vehicle: other): 120 % of control | T/C (dose: 67.0 mg/kg/injection, schedule: Q01DX009 (ip), vehicle: saline with Tween-80): 102 % of control | T/C (dose: 74.5 mg/kg/injection, schedule: Q01DX009 (ip), vehicle: saline with Tween-80): 119 % of control | T/C (dose: 75.0 mg/kg/injection, schedule: Q01DX001 (ip), vehicle: other): 107 % of control | T/C (dose: 75.0 mg/kg/injection, schedule: Q04DX003 (ip), vehicle: saline with Tween-80): 116 % of control | T/C (dose: 100.0 mg/kg/injection, schedule: Q01DX009 (ip), vehicle: saline with Tween-80): 109 % of control | T/C (dose: 110.5 mg/kg/injection, schedule: Q04DX003 (ip), vehicle: saline with Tween-80): 122 % of control | T/C (dose: 125.0 mg/kg/injection, schedule: Q01DX001 (ip), vehicle: saline with Tween-80): 110 % of control | T/C (dose: 125.0 mg/kg/injection, schedule: Q01DX009 (ip), vehicle: saline with Tween-80): 86 % of control | T/C (dose: 149.0 mg/kg/injection, schedule: Q01DX009 (ip), vehicle: saline with Tween-80): 156 % of control | T/C (dose: 150.0 mg/kg/injection, schedule: Q01DX001 (ip), vehicle: other): 107 % of control | T/C (dose: 150.0 mg/kg/injection, schedule: Q01DX001 (ip), vehicle: saline with Tween-80): 109 % of control | T/C (dose: 150.0 mg/kg/injection, schedule: Q01DX009 (ip), vehicle: other): 150 % of control | T/C (dose: 150.0 mg/kg/injection, schedule: Q01DX009 (ip), vehicle: saline with Tween-80): 117 % of control | T/C (dose: 150.0 mg/kg/injection, schedule: Q04DX003 (ip), vehicle: saline with Tween-80): 120 % of control | T/C (dose: 221.0 mg/kg/injection, schedule: Q04DX003 (ip), vehicle: saline with Tween-80): 150 % of control | T/C (dose: 300.0 mg/kg/injection, schedule: Q01DX001 (ip), vehicle: other): 123 % of control | T/C (dose: 300.0 mg/kg/injection, schedule: Q04DX003 (ip), vehicle: saline with Tween-80): 106 % of control
